The values below come from patent US20040082510A1, “Pyk2 phosphorylation by her3 induces tumor invasion” (priority 2001, published 2004).

Test [1] has as its system SHC tyrosine phosphorylation in SF767 gliomas. As to the kind of experiment: SHC tyrosine phosphorylation in SF767 gliomas. The test is classed as cell-based, human. The settings on record: AG825 10 μM 1 hour, 5 μg/ml HRG 20 min. How it is done: (§1) FIG. 5: PYK2 mediates mitogenicity upon HRG stimulation. a, b, SF767 gliomas were pretreated either with 10 μM AG825 for 1 hour or with 100 nM Wortmannin for 30 min (WT), and then stimulated with 5 μg ml^−1 Heregulin for 20 min (HRG). Tyrosine phosphorylation of SHC was elevated by HRG and attenuated by pretreatment with AG825, but not fully abrogated (a). The same holds also for ERK-2 activity, when cells were pretreated either with AG825 or with WT (b). Cell lysates were used for immunoprecipitation with polyclonal anti-SHC (α-SHC) (a), or polyclonal anti-Erk-2 (α-ERK-2) antibodies (b). α-SHC-immunocomplexes were blotted with a monoclonal anti-phosphotyrosine antibody (α-4G10) (a), whereas α-ERK-2 immunocomplexes were subjected to MAP-kinase assays (b). Phosphorylated MBP is indicated by an arrow. c, Tetracyclin-inducible pheochromocytoma PC12 cells, either stably expressing PYK2-KM (Tet−), or only endogenous PYK2 (Tet+), were pretreated either with 100 nm Wortmannin for 30 min (WT), or 10 μM AG825 for 1 hour prior to stimulation with 5 μg ml^−1 Heregulin for 20 min (HRG). Basal ERK-2 activity is independent of HER2 and Pl3-K, whereas the HRG-stimulated ERK-2 activity is dependent on HER2, Pl3-K and PYK2. […]
(§2) Proteins were fractionated by SDS-PAGE and electrophoretically transferred to nitrocellulose filters. […] The substrate reaction was detected on Kodak X-Omat film. […]

Test [2] relates to Pl3-K activity in PC12 cells. Nature of the test: Pl3-K assay on anti-phosphotyrosine immunoprecipitates from tetracyclin-inducible PC12 cells. Type of test: cell-based, rat. The following applies: PC12 Tet-off; 5 μg/ml HRG 20 min; AG825 10 μM 1 hour or PYK2-KM expression (Tet−). How it is done:
FIG. 6: PYK2 enhances Pl3-K activity upon HRG stimulation. a, Tetracyclin-inducible pheochromocytoma […], either stably expressing PYK2-KM (Tet−) or only endogenous PYK2 (Tet+), were pretreated either with 100 nm Wortmannin for 30 min (WT), or 10 μM AG825 for 1 hour prior to stimulation with 5 μg ml^−1 Heregulin for 20 min (HRG). Lysates were subjected to α-4G10 immunoprecipitation and Pl3-K assays were performed (see Methods section). Pl3-K activity is strongly dependent on PYK2 upon HRG stimulation, and is diminished by AG825. MAP-kinase and Pl3-kinase assays were performed as described previously (49, 50).

Test [3] deals with HER2 tyrosine phosphorylation in PC 12 cells. As to the kind of experiment: HER2 tyrosine phosphorylation in PC 12 cells. The settings on record: 10 μM AG825, HRG stimulation. Type of test: cell-based, rat. As to the method: (§3) FIGS. 13, 14: PC 12 cells were left untreated or pretreated either with 10 μM AG825, 50 μM PD98059 or both and subsequently stimulated with HRG. Immunoprecipitations of HER2 (α-HER2) or of tyrosyl-phosphorylated proteins (α-PY) were probed with phosphotyrosine antibody (α-PY). […] Reprobing of the blot with HER2 antibody confirms equal loading of proteins. SHC is indicated by an arrow.

In test [4] the test system is SHC tyrosine phosphorylation in PC 12 cells. Nature of the test: SHC tyrosine phosphorylation in PC 12 cells. Type of test: cell-based, rat. The following applies: 10 μM AG825, HRG stimulation. How it is done:
as §3

In test [5] the test system is ERK-2 activity in PC12 cells. Nature of the test: MAP-kinase assay on ERK-2 immunocomplexes from tetracyclin-inducible PC12 cells (Tet-off PYK2-KM). The following applies: AG825 10 μM 1 hour, WT 100 nM 30 min or PYK2-KM expression (Tet−); for HRG-stimulated ERK-2 activity: 5 μg/ml HRG 20 min; for Basal ERK-2 activity: unstimulated. Type of test: cell-based, rat.
The subject of test [6] is PYK2 tyrosine phosphorylation in SF767 gliomas. As to the kind of experiment: PYK2 tyrosine phosphorylation in SF767 gliomas (immunoprecipitation, anti-phosphotyrosine western blot). The test is classed as cell-based, human. The following applies: for HRG-induced tyrosine phosphorylation of PYK2: 5 μg/ml HRG 20 min, pretreatment with PP1 5 μM 30 min, AG825 10 μM 1 hour or Wortmannin 100 nM 30 min. As to the method: (§4) SF767 gliomas were pretreated with 5 μM PP1 for 30 minutes and stimulated either with 5 μg ml^−1 Heregulin (HRG, left panel) or 5 μM lonomycin (IONO, right panel) for 20 min and 5 min, respectively. b, PYK2 coprecipitation with HER3 depends on the HER2 kinase activity, and tyrosine phosphorylation of PYK2 is proportional to its binding to HER3. SF767 gliomas were pretreated with 10 μM AG825 for 1 hour and stimulated with 5 μg ml^−1 Heregulin for 20 min (HRG). Cell lysates were subjected to immunoprecipitation (IP) using polyclonal anti-PYK2 (α-PYK2) or monoclonal anti-HER3 (α-HER3) antibodies. Tyrosine phosphorylation level was analysed by western blotting (WB) with monoclonal anti-phosphotyrosine antibody (α-4G10) (a, upper panels, and b, upper panel). Equal loading of proteins was checked by reblotting with α-PYK2 and α-HER3 antibodies, respectively (a, lower panels, and b, middle and lower panels). PYK2 coprecipitating with HER3 was detected by probing the membrane with α-PYK2 antibody (b, middle panel, lanes 1-4). Unstimulated cells are indicated by NS.
SF763, SF767 or transfected HEK293 cells were either left untreated or were pretreated with PP1 (10 μM), AG825 (10 μM), Wortmannin (WT) (100 nM) and PD98059 (25 μM) for 30-60 min following stimulation with 5 μg/ml recombinant human HRG for 20 min or with 5 μM IONO for 5 min at 37° C. Upon HRG or IONO stimulation, the cells were lysed on ice in a lysis buffer (50 mM HEPES pH 7.5, containing 150 mM NaCl, 1 mM EDTA, 10% (v/v) glycerol, 1% (v/v) Triton X-100, 1 mM sodium fluoride, 1 mM phenylmethylsulfonyl fluoride, 1 mM sodium orthovanadate, 1 mM β-glycerolphosphate, […] aprotinin). Crude lysates were centrifuged at 12500 g for 20 min at 4° C. For immunoprecipitations, the appropriate antiserum and 30 μl of protein A-Sepharose (Pharmacia) was added to the cleared lysate and incubated for 3 h at 4° C. […]
as §2

For test [7], the system named is PYK2 coprecipitating with HER3 in SF767 gliomas. As to the kind of experiment: PYK2 coprecipitation with HER3 in SF767 gliomas. The test is classed as cell-based, human. The following applies: AG825 10 μM 1 hour, with or without HRG. How it is done: as §4, with “NS. […]” for “NS.”
as §2

Test [8] concerns ERK-2 activity in SF767 gliomas. As to the kind of experiment: MAP-kinase assay on ERK-2 immunocomplexes from SF767 gliomas. The test is classed as cell-based, human. The following applies: AG825 10 μM 1 hour or WT 100 nM 30 min, 5 μg/ml HRG 20 min. How it is done:
as §1, with “PYK2. Overexpression of PYK2-KM leads to a general attenuation of ERK-2 activity (compare Tet− with Tet+ bands).” for “PYK2.”

Test [9] deals with ERK-2 phosphorylation in C6 glioma cells. Nature of the test: Phosphorylated ERK-2 in whole cell lysates of C6 glioma cells. The test is classed as cell-based, rat. The following applies: in parallel to the tumor invasion assay, PD98059 or PYK2-KM. As to the method:
(§5) FIGS. 15, 16: Whole cell lysates (WCL) of C6 glioma cells were prepared in parallel to the tumor invasion assay and the content of phosphorylated ERK-2 was assessed by probing with a specific phospho-ERK2 antibody (upper panel). To confirm equal loading of proteins the blot was reprobed with a pan-ERK antibody. (16) The same experimental procedure was used as in (15) for SF767 cells. Phosphorylated ERK-2 is indicated by an arrow. Dominant-negative PYK2-KM abrogates ERK-2 activity to the same extent as MEK-1 inhibitor PD98059.
(§6) Proteins were fractionated by SDS-PAGE and electrophoretically transferred to nitrocellulose filters. For immunoblot analysis, nitrocellulose filters were first incubated with mouse monoclonal or rabbit polyclonal primary antibodies for 3 h at 4° C. Next, a HRP-coupled goat anti-mouse or goat anti-rabbit secondary antibody was added (Biorad), followed by an enhanced chemoluminescence (ECL) substrate reaction (Amersham). The substrate reaction was detected on Kodak X-Omat film. Filters that were used more than once with different antibodies were stripped according to the manufacturer's protocol, blocked and reprobed.

A further test concerns C6 gliomas. Nature of the test: Tumor invasion assay, C6 gliomas. The test is classed as cell-based, rat. The following applies: 5 μg/ml HRG, 16 h, PD98059 25 μM 30 min pretreatment or retroviral PYK2-KM. As to the method:
(§7) FIG. 7: PYK2-KM inhibits tumor invasion upon HRG stimulation. a, C6 gliomas were retrovirally infected with either a control vector pLXSN (mock), PYK2, dominant negative PYK2 mutant PYK2-KM, or pretreated with a MEK1 inhibitor PD98059 (25 μM) for 30 min, and tumor invasion assays were performed (see Methods section). b, Invasion is supressed to the same extent by PD98059 and by overexpression of PYK2-KM (p>0.95). c, SF767 gliomas were retrovirally infected with pLXSN or PYK2-KM. d, Tumor invasion is supressed by overexpresssion of PYK2-KM in SF767 (p<0.008), and also in SF763 cell line (p<0.005), as shown by using the same assay. Representative bright-field micrographs of cells that migrated through the 8 μm filters in 16 h are shown. […]
(§8) Amphotrophic virus titer, which was generated by transient transfection of retrovirus expression plasmids into the virus producer cell line PhoenixA (ATCC), was determined by infecting NIH-3T3 cells with serial dilutions of retrovirus-containing, cell-free PhoenixA supernatants and counting the number of G418-resistant colonies. […]
(§9) Tumor invasion assay was performed as describ d previously (31). […] Following 16 h of incubation, non-invading cells were removed with cotton swabs, whereas invading cells were fixed, stained with Crystal violet and counted under bright-field illumination using an Axiovert135 inverted microscope (Zeiss). […]

Test [10] has as its system ERK-2 phosphorylation in SF767 cells. As to the kind of experiment: Phosphorylated ERK-2 in whole cell lysates of SF767 cells. The test is classed as cell-based, human. The settings on record: in parallel to the tumor invasion assay, PD98059 or PYK2-KM. As to the method: as §5, §6
The next test has as its system SF767 gliomas. Nature of the test: Tumor invasion assay, SF767 gliomas. The test is classed as cell-based, human. The settings on record: HRG, 16 h, retroviral infection with PYK2-KM. How it is done: as §7, §8, §9
Another test concerns SF763 cell line. Nature of the test: Tumor invasion assay, SF763 cell line. Type of test: cell-based, human. The settings on record: HRG, 16 h, retroviral infection with PYK2-KM. How it is done: as §7, §8, §9

Take `COc1cc(/C=C(\C#N)C(N)=O)cc(CSc2nc3ccccc3s2)c1O` [AG825]: the “HRG-stimulated tyrosine-phosphorylation of SHC” value in test [1] is “diminished, but not fully abrogated”. For the same molecule, the “Pl3-K activity upon HRG stimulation” value in test [2] is reported as “diminished”. In [3], the “Tyrosine phosphorylation of HER2” value is on record as “completely inhibits”. Moreover, the “Tyrosine phosphorylation of SHC” value in test [4] is given as “completely inhibits”. Also, in test [5], the “HRG-stimulated ERK-2 activity” value is given as “attenuated” and the “Basal ERK-2 activity” value is on record as “not influenced”. In addition, in test [6], the “HRG-induced tyrosine phosphorylation of PYK2” value is reported as “attenuated”. Besides, the “Amount of PYK2 that coprecipitates with HER3” value in test [7] was “decreases”. In test [8], the “HRG-stimulated ERK-2 activity” value was “diminished, but not fully abrogated”.
For the molecule `COc1cccc(-c2cc(=O)c3ccccc3o2)c1N` [PD98059], the ERK-2 phosphorylation result in test [9] and in test [10] was “decrease” each time. Also, the “Tumor invasion (invasiveness)” value with C6 gliomas was “strongly attenuated”.
Turning to `Cc1ccc(-c2nn(C(C)(C)C)c3ncnc(N)c23)cc1` [PP1], the “Ionomycin-induced tyrosine phosphorylation of PYK2” value in test [6] (5 μM IONO 5 min, PP1 5 μM 30 min pretreatment) is listed as “dependent on c-src activity”. Also, the “HRG-induced tyrosine phosphorylation of PYK2” value in [6] was “independent of c-src”.
Take “PYK2-KM: dominant negative, kinase-inactive PYK2 mutant K457M, expressed by retroviral infection or Tet-off system”: the ERK-2 phosphorylation entry in test [9] and in test [10] was “decrease” in each case. In the test on C6 gliomas, the “Tumor invasion (invasiveness)” value is listed as “comparable abrogation of the invasive phenotype”. The “Pl3-K activity upon HRG stimulation” value in test [2] is reported as “attenuates”. In addition, the “Tumor invasion (invasive behaviour)” value in the test on SF767 gliomas and in the test with SF763 cell line was “strong inhibition” in each case. For the same molecule, the “HRG-stimulated ERK-2 activity” value in [5] is on record as “abrogated”. Besides, in test [5], the “Basal ERK-2 activity” value was “abrogated”.
